The test system of series [1] is HIV-1JR-FL envelope-mediated membrane fusion. Kind of series: microbe, parasite or virus in culture. Type of series: cell-based. The arrangement: CI90: unit not given beside the values.
The test system of series [2] is reporter viruses pseudotyped with HIV-1SF162 envelope (U87-CD4-CCR5 cells). In words: HIV-1 pseudovirus assay, SF162 envelope. The settings on record: Human immunodeficiency virus 1, U87/CD4/CCR5. Type of series: cell-based. The source says: A self-inactivating (SIN) vector was derived from the pNL4-3ΔEnv-luciferase vector (Dragic et al. 1996) by deleting 507 basepairs in the U3 region of the 3′ long terminal repeat (LTR) so as to remove the TATA box and transcription factor binding sites. The human cytomegalovirus promoter was inserted upstream of the luciferase (luc) gene to enable expression of luciferase following integration.
Reporter viruses pseudotyped with HIV-1JR-FL or HIV-15F162 envelopes were generated by cotransfection of 293T cells with the SIN vector and the appropriate pcDNA env-expressing vector as previously described (Dragic et al. 1996). U87-CD4-CCR5 cells (8,000/well; NIH AIDS Research and Reference Reagent Program) were infected with 125-375 pg of HIV-L pseudoviruses in 384-well plates in the presence or absence of inhibitor(s). Cultures were incubated for 72 h at 37° C. in DMEM containing 10% fetal bovine serum, […], 0.3 mg/mL geneticin, antibiotics, and 0.5% DMSO. Luciferase activity (relative light units or RLU) was measured using BrightGlo reagent (Promega, Madison, Wis.) according to the manufacturer's instructions.
Experimental design and data analysis were based on the combination index (CI) method (Chou et al. 1991; Chou et al. 1984). […] The mutually exclusive CI formula was used for combinations of CCR5 inhibitors, while the mutually non-exclusive formula was utilized for combinations of inhibitors to distinct targets (Chou et al. 1991). Each test was conducted 4-12 times. Synergy, additivity and antagonism are indicated by CI<1, CI=1 and CI>1, respectively.
In the Bonferroni correction, P=α/n, where n is the number of comparisons. Twenty-two synergy comparisons (11 compounds×2 CI values) were made based on data generated in the membrane fusion assay, resulting in a corrected P value of 0.0023.

Series [3] relates to reporter viruses pseudotyped with HIV-1JR-FL envelope (U87-CD4-CCR5 cells). Kind of series: microbe, parasite or virus in culture. The settings on record: for IC50 / IC90: Human immunodeficiency virus 1, U87/CD4/CCR5. It is filed as cell-based.
Series [4] concerns HIV-1. The following applies: dose-dependent, treatment period of 10-14 days; cited from earlier work.
Series [5] has as its target CCR5 (Homo sapiens, UniProt P51681). The settings on record: cited from earlier work.
Series [6] deals with HIV-1 Env-mediated fusion (HeLa-EnvJRFL with CEM NKR-CCR5 cells). In words: HIV-1 RET cell-cell fusion assay, combination testing (Part II). The settings on record: PRO 140 in combination with the labelled inhibitor, 1:1 molar ratio.
Description: Serial dilutions of small molecules were conducted in DMSO. Subsequent dilutions were conducted in medium to achieve a final DMSO concentration in the assay of 0.5%. Peptides and mAbs were diluted in PBS in the absence of DMSO.
Briefly, fluorescein octadecyl ester (F18; Molecular Probes, Eugene, Oreg.; 5 mg/ml in ethanol), was diluted 1:800 in DMEM labeling medium (DMEM; Invitrogen, Carlsbad, Calif.) with 10% fetal bovine serum (FBS; HyClone, Logan, Utah) and adjusted to an A506 of 0.34±10%. […] Both dyes were further diluted 2-fold by addition to cells in T75-cm^2 flasks. HeLa-EnvJRFL and CEM NKR-CCR5 cells were incubated overnight in F18- and R18-containing culture medium, respectively. […] The plates were then read on a fluorescence plate reader (Victor^2, Perkin Elmer, Boston, Mass.) using the excitation/emission filter combinations shown in Table 6a. […]
IC50 values were generated for all combinations as described above. Combination Index (CI) and Dose Reduction (DR) values were calculated according to the following formulas:
Combinations with CI<1 are determined to be synergistic, whereas combinations with CI>1 are determined to be antagonistic. […]
In this assay, effector cells are labeled with the F18 dye and target cells with the R18 dye. […] Drug susceptibility is measured by adding serial concentrations of drugs to target cells prior to addition of effector cells. […]
The mark [7] stands for this setting: Human immunodeficiency virus 1, 1st inhibitor alone.

Like-named read-outs stand apart in the source and are kept apart here.

Sequence of CCR5 (P51681 whole entry, the tested form may be a part): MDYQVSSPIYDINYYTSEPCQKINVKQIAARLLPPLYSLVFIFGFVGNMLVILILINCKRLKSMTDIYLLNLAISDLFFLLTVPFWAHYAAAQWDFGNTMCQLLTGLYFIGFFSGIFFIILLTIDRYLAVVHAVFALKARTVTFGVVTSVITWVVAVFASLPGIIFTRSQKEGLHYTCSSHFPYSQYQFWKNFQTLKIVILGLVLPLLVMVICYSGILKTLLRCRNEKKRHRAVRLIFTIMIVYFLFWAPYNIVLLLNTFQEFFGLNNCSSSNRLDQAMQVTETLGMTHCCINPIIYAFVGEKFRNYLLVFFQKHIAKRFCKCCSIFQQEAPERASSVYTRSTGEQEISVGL

For `COc1ccnc2[nH]cc(C(=O)C(=O)N3CCN(C(=O)c4ccccc4)C[C@H]3C)c12` [BMS-378806, (R)—N-(benzoyl)-3-methyl-N′-[(4-methoxy-7-azaindol-3-yl)-oxoacetyl]-piperazine], the IC50 stood at 5.2 nM in series [1] (setting [7]), 0.03 nM in series [2] and 1.2 nM in series [3]. The IC90 was 20 nM in series [1] (setting [7]), 0.42 nM in series [2] and 11 nM in series [3].
Take `CCCCN1C(=O)[C@@H]([C@H](O)C2CCCCC2)NC(=O)C12CCN(Cc1ccc(Oc3ccc(C(=O)O)cc3)cc1)CC2` [GW873140]: in series [4], the “mean reduction in HIV-1 RNA levels” value is ~1 log10.
Regarding `CCO/N=C(\c1ccc(Br)cc1)C1CCN(C2(C)CCN(C(=O)c3c(C)cc[n+]([O-])c3C)CC2)CC1` [SCH-C], in series [4], the “mean reduction in HIV-1 RNA levels” value is ~1 log10.
In turn, `COC[C@@H](c1ccc(C(F)(F)F)cc1)N1CCN(C2(C)CCN(C(=O)c3c(C)ncnc3C)CC2)C[C@@H]1C` [SCH-D, 1-[(4,6-dimethyl-5-pyrimidinyl)carbonyl]-4-[4-[2-methoxy-1(R)-4-(trifluoromethyl)phenyl]ethyl-3(S)-methyl-1-piperazinyl]-4-methylpiperidine] displayed a CI90 in series [1] (SCH-D with UK-427,857 1:1, experiment depicted in FIG. 15B) of 0.73. In series [1] (SCH-D with UK-427,857, 1:1 fixed molar ratio, FIG. 15B, read-out: IC90 of the combination), the IC90 was found to be 31 nM. Also, the “mean reduction in HIV-1 RNA levels” value in series [4] was ~1 log10.
Turning to `CCCCOCCOc1ccc(-c2ccc3c(c2)/C=C(/C(=O)Nc2ccc([S+]([O-])Cc4cncn4CCC)cc2)CCCN3CC(C)C)cc1` (stereo not drawn) [TAK-652], in series [5] (Baba et al., 2005), the “anti-HIV-1 activity in vitro” value is on record as “nanomolar range” and the oral bioavailability entry was “orally bioavailable”. Further, the tolerability entry in series [5] (TAK-779: Iizawa et al., 2003, TAK-652: single oral dose, healthy male volunteers) was “safe and well tolerated”.
Regarding `Cc1nnc(C(C)C)n1C1CC2CCC(C1)N2CC[C@H](NC(=O)C1CCC(F)(F)CC1)c1ccccc1` (stereo partly drawn) [UK-427,857], the IC50 in series [1] (setting [7]) came to 5.3 nM; in series [1] (Human immunodeficiency virus 1, read-out: IC50 of the combination, UK-427,857 with PRO 140, 1:1 fixed molar ratio, total concentration, FIG. 15A), 2.1 nM. For the same compound, the IC90 in series [1] (setting [7]) was 27 nM; in series [1] (Human immunodeficiency virus 1, inhibitor alone, experiment depicted in FIG. 15A) it was 21 nM; in series [1] (Human immunodeficiency virus 1, inhibitor alone, experiment depicted in FIG. 15B), 59 nM; in series [1] (Human immunodeficiency virus 1, read-out: IC90 of the combination, UK-427,857 with PRO 140, 1:1 fixed molar ratio, FIG. 15A) it was 4.6 nM. In series [1] (UK-427,857 with PRO 140 1:1, experiment depicted in FIG. 15A), this compound registered a CI90 of 0.32.
`Cc1ccnc2c1NC(=O)c1cccnc1N2C1CC1` [nevirapine]: in series [2], the IC50 was found to be 42 nM and the IC90 was determined as 280 nM. Further, in series [3], the IC50 was 30 nM and the IC90 is 310 nM.
In the same order, the values of `Cc1cn([C@H]2C[C@H](N=[N+]=[N-])[C@@H](CO)O2)c(=O)[nH]c1=O` [zidovudine] are 86 nM, 2100 nM, 140 nM and 1900 nM.
“RANTES: CC-chemokine, natural peptide ligand of CCR5, purchased from R&D Systems”: in series [1] (in combination with PRO 140), the “CI values (50% and 90% inhibition)” value is listed as “Similarly potent synergy”. Also, in series [1] (labelled 1st inhibitor with 2nd inhibitor UK-427,857, equimolar), the CI50 entry is “Similarly potent synergy”. Also, the “Mean CT (Combination Index at IC50 value)” value in series [6] stood at 0.59 ± 0.08. Also, the “inhibition of HIV-1 pseudovirus entry (in words)” value in series [3] (inhibitor alone) is listed as “Neither TAK-779 nor RANTES mediated consistent, high-level inhibition”.

The values are drawn from patent US10500274B2, “Methods for reducing viral load in HIV-1 infected patients” (CytoDyn Inc., priority 2008, dated 2019).
